Reference: paper PMC8151276, “An Integrated Approach toward NanoBRET Tracers for Analysis of GPCR Ligand Engagement” (Molecules, 2021)

How the values were obtained:
Assay type in all cases: binding
[1] = biological target: T1, FPR1 (Homo sapiens, UniProt P21462); test: NanoBRET screen HiBiT-FPR1 in HEK293
T1 construct: purchased Promega (in-house HiBiT-GPCR construct library, NanoBRET)
T1 sequence (P21462 1-350): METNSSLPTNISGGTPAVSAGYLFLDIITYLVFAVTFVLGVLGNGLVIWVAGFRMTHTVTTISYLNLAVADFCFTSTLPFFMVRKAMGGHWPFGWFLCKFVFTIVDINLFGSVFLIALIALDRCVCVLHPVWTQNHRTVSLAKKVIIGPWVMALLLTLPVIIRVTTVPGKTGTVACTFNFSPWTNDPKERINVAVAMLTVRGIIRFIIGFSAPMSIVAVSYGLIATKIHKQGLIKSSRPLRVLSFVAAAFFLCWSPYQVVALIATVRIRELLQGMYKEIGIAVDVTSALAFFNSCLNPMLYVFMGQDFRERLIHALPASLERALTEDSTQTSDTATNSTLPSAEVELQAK
Procedure: (§1) Each tracer candidate was screened across the entire library of HiBiT-GPCR constructs using NanoBRET as the detection modality. As depicted in Figure 4A, the specificity of interactions was evaluated through decrease in BRET due to competitive displacement of a bound tracer by excess parental compound. Each tracer was analyzed for binding to each HiBiT-GPCR fusion in the absence and in the presence of competing parental compound. Briefly, HEK293 cells were transfected with HiBiT-GPCR constructs diluted into promoterless DNA to reduce expression and maximize translocation to the cell surface. Each tracer candidate was then screened at concentrations of 1 μM and 0.1 μM across cells expressing these fusions. Cells were treated for 1.5 h with tracer either alone or in the presence of 20 μM competing parental compound (i.e., control). BRET was measured upon addition of purified LgBiT and subsequent complementation with HiBiT genetically fused to a GPCR. The specificity of interactions was assessed through a decrease in BRET signal due to competitive displacement of the bound tracer. To further gauge the robustness of these interactions, the fold response over the control (i.e., BRETtracer/BRETcontrol) was calculated. We chose a 1.5-fold response, which translates to ≥7-fold signal over noise as the minimal threshold required to score an interaction as positive. […]. Below we highlight the screening results obtained for our exemplary fluorescent tracers based on Clozapine, Amitriptyline and AZD1283.
(§2) HiBiT-GPCR DNA constructs were diluted in 10 mM Tris pH 8 to a final concentration of 0.01 μg/μL, arrayed in 96-well plates and stored at −20 °C. For transfection, HEK293 cells were suspended in Opti-MEM (without phenol red) supplemented with 2% fetal bovine serum (Seradigm) and 100 units/mL penicillin–streptomycin (Gibco) at a final concentration of 220,000 cells/mL and dispensed into white 96-well plates at 90 μL/well. Subsequent transfections and screens were carried using an Agilent Bravo Automated Liquid Handling Platform. First, the 96-well HiBiT DNA arrays were diluted 25-fold in Opti-MEM (without serum or phenol red) to a final concentration of 0.0004 μg/μL and 20 μL of the diluted DNAs were transferred into new 96-well plates. Next, promoterless carrier DNA (1 μg/μL) was diluted 25-fold (0.04 μg/μL) and then dispensed into the diluted arrays at 20 μL/well. Following brief mixing, Viafect transfection reagent (Promega) diluted 16-fold into Opti-MEM was dispensed into the plates at 40 μL/well. After mixing by pipetting, plates were incubated for 10 min on the pipetting station deck. The DNA-transfection reagent complexes were then added to plates containing cells. To facilitate the screen, 10 μL of DNA-transfection reagent complexes were added in duplicates to the top 4 and bottom 4 rows, resulting in two identical 48-well arrays per plate. Plates with transfected cells were incubated for 18–20 h at 37 °C/5% CO2. A screen of each tracer across the entire library using two different concentrations requires duplicate plates of transfected cells. Depending on the number of tracers being screened, transfections can be scaled up using the same ratios. The next day, for each tracer, four 20× screening solutions in tracer dilution buffer (Promega) were prepared: two duplicates at final concentration of 20 μM and two duplicates at a final concentration of 2 μM. A competing unmodified compound was added to one of each duplicate at a final concentration of 400 μM. The four resulting solutions were diluted 4-fold in Opti-MEM without serum or phenol red to generate 5× solutions (5 µM and 0.5 µM tracer +/− 100 μM competing compound). To screen the library, a BioTek MultiFlo FX liquid dispenser was used to dispense 22.5 µL of tracer solution to the top 4 rows and 22.5 µL tracer + competing compound solution to the 4 bottom rows. Plates were briefly mixed on an orbital shaker and incubated for 1.5 h at room temperature. […]

[2] = biological target: T2, P2RY6 (Homo sapiens, UniProt Q15077); test: NanoBRET screen HiBiT-P2RY6 in HEK293
T2 construct: purchased Promega (in-house HiBiT-GPCR construct library, NanoBRET)
Procedure: as §1, §2

[3] = biological target: T3, FZD7 (Homo sapiens, UniProt O75084); test: NanoBRET screen HiBiT-FZD7 in HEK293
T3 construct: purchased Promega (in-house HiBiT-GPCR construct library, NanoBRET)
Procedure: as §1, §2

[4] = biological target: T4, FZD5 (Homo sapiens, UniProt Q13467); test: NanoBRET screen HiBiT-FZD5 in HEK293
T4 construct: purchased Promega (in-house HiBiT-GPCR construct library, NanoBRET)
Procedure: as §1, §2

[5] = biological target: T5, OPRK1 (Homo sapiens, UniProt P41145); test: NanoBRET screen HiBiT-OPRK1 in HEK293
T5 construct: purchased Promega (in-house HiBiT-GPCR construct library, NanoBRET)
Procedure: as §1, §2

[6] = biological target: T6, ADORA3 (Homo sapiens, UniProt P0DMS8); test: NanoBRET screen HiBiT-ADORA3 in HEK293
T6 construct: purchased Promega (in-house HiBiT-GPCR construct library, NanoBRET)
T6 sequence (P0DMS8 1-318): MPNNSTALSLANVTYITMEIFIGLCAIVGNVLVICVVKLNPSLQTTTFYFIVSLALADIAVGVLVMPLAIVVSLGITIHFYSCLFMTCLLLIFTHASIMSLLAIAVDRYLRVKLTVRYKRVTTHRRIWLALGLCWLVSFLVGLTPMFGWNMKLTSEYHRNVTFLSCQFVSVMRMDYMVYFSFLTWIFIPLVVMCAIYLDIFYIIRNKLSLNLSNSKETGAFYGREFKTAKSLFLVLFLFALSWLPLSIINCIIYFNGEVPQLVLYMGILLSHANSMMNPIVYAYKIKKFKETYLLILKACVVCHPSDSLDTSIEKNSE
Procedure: as §1, §2

T5 sequence (P41145 whole entry): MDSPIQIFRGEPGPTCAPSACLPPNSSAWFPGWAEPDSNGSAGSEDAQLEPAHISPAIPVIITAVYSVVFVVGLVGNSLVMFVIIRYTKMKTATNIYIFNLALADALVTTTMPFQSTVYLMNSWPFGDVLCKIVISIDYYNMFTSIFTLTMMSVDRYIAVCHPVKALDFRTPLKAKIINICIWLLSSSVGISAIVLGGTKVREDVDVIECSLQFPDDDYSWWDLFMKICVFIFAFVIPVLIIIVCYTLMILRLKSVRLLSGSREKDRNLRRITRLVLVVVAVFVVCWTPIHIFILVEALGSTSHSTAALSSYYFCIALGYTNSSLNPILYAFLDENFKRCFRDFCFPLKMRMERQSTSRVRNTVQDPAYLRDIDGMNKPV
T4 sequence (Q13467 27-585): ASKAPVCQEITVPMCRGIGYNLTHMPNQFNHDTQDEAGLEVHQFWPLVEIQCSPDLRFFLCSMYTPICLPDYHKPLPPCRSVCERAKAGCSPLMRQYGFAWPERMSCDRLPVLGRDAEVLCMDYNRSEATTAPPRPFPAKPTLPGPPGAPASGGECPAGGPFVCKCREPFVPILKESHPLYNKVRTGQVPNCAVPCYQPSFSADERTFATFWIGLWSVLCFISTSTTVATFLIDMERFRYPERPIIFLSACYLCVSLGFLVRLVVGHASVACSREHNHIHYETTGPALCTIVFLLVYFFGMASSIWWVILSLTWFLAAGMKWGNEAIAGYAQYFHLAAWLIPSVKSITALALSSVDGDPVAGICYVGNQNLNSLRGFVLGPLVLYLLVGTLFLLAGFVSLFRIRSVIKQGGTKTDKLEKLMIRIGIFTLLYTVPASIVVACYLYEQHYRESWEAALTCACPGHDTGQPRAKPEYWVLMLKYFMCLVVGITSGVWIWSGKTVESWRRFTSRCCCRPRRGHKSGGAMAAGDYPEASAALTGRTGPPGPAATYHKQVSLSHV
T2 sequence (Q15077 whole entry): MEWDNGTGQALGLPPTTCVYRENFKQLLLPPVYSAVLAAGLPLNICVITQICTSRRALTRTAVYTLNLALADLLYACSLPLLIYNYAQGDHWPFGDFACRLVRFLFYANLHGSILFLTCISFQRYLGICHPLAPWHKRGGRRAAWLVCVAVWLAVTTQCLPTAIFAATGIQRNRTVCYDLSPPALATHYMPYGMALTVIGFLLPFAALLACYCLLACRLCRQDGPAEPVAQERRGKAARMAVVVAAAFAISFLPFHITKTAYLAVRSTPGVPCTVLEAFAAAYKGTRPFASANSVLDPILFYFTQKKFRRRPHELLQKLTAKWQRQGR

## CN(C)CCC=C1c2ccccc2CCc2ccc(C(=O)NCCNC(=O)CCOCCOCCOCCOCCNC(=O)CCc3ccc4n3[B-](F)(F)[N+]3=C(c5ccc[nH]5)C=CC3=C4)cc21 [Amitriptyline-a-2-NB590]
[1]; tracer at 0.1μM
  NanoBRET Fold Response: 1.02
[1]; tracer at 1μM
  NanoBRET Fold Response: 1.04
[2]; tracer at 0.1μM
  NanoBRET Fold Response: 1.00
[2]; tracer at 1μM
  NanoBRET Fold Response: 0.94
[3]; tracer at 0.1μM
  NanoBRET Fold Response: 0.89
[3]; tracer at 1μM
  NanoBRET Fold Response: 0.97
[4]; tracer at 0.1μM
  NanoBRET Fold Response: 1.01
[4]; tracer at 1μM
  NanoBRET Fold Response: 0.97
[5]; tracer at 0.1μM
  NanoBRET Fold Response: 1.04
[5]; tracer at 1μM
  NanoBRET Fold Response: 1.02
[6]; tracer at 0.1μM
  NanoBRET Fold Response: 1.00
[6]; tracer at 1μM
  NanoBRET Fold Response: 1.07

## Cc1nc2n(c(=O)c1CCN1CCC(c3noc4cc(F)ccc34)CC1)CCCC2OC(=O)NCCOCCOCCOCCOCCNC(=O)CCc1ccc2n1[B-](F)(F)[N+]1=C(c3ccc[nH]3)C=CC1=C2 (centres unmarked) [Risperidone-2-NB590]
[1]; FPR1, tracer 0.1μM
  NanoBRET Fold Response: 0.97
[1]; FPR1, tracer 1μM
  NanoBRET Fold Response: 0.91
[2]; P2RY6, tracer 0.1μM
  NanoBRET Fold Response: 1.00
[2]; P2RY6, tracer 1μM
  NanoBRET Fold Response: 1.03
[3]; FZD7, tracer 0.1μM
  NanoBRET Fold Response: 0.98
[3]; FZD7, tracer 1μM
  NanoBRET Fold Response: 1.04
[4]; FZD5, tracer 0.1μM
  NanoBRET Fold Response: 0.95
[4]; FZD5, tracer 1μM
  NanoBRET Fold Response: 0.99
[5]; OPRK1, tracer 0.1μM
  NanoBRET Fold Response: 0.96
[5]; OPRK1, tracer 1μM
  NanoBRET Fold Response: 0.99
[6]; ADORA3, tracer 0.1μM
  NanoBRET Fold Response: 1.03
[6]; ADORA3, tracer 1μM
  NanoBRET Fold Response: 0.87

## COc1ccc2[nH]c(-c3ccc(CNC(=O)CCOCCOCCOCCOCCNC(=O)CCc4ccc5n4[B-](F)(F)[N+]4=C(c6ccc[nH]6)C=CC4=C5)cc3)c(CCNC(C)=O)c2n1 [AzomelatoninICO9-2-NB590]
[1]; 0.1μM tracer
  NanoBRET Fold Response: 1.02
[1]; 1μM tracer
  NanoBRET Fold Response: 0.90
[2]; 0.1μM tracer
  NanoBRET Fold Response: 1.40
[2]; 1μM tracer
  NanoBRET Fold Response: 1.09
[3]; 0.1μM tracer
  NanoBRET Fold Response: 1.29
[3]; 1μM tracer
  NanoBRET Fold Response: 0.84
[4]; 0.1μM tracer
  NanoBRET Fold Response: 0.97
[4]; 1μM tracer
  NanoBRET Fold Response: 0.93
[5]; 0.1μM tracer
  NanoBRET Fold Response: 0.96
[5]; 1μM tracer
  NanoBRET Fold Response: 0.93
[6]; 0.1μM tracer
  NanoBRET Fold Response: 0.91
[6]; 1μM tracer
  NanoBRET Fold Response: 0.97

## COc1ccccc1N1CCN(CCCCN2C(=O)c3ccc(CNC(=O)CCOCCOCCOCCOCCNC(=O)CCc4ccc5n4[B-](F)(F)[N+]4=C(c6ccc[nH]6)C=CC4=C5)cc3C2=O)CC1 [NAN-190-2-NB590]
[1]; FPR1, tracer 0.1μM
  NanoBRET Fold Response: 1.09
[1]; FPR1, tracer 1μM
  NanoBRET Fold Response: 1.04
[2]; P2RY6, tracer 0.1μM
  NanoBRET Fold Response: 0.96
[2]; P2RY6, tracer 1μM
  NanoBRET Fold Response: 1.17
[3]; FZD7, tracer 0.1μM
  NanoBRET Fold Response: 1.00
[3]; FZD7, tracer 1μM
  NanoBRET Fold Response: 1.03
[4]; FZD5, tracer 0.1μM
  NanoBRET Fold Response: 0.97
[4]; FZD5, tracer 1μM
  NanoBRET Fold Response: 1.00
[5]; OPRK1, tracer 0.1μM
  NanoBRET Fold Response: 1.02
[6]; ADORA3, tracer 0.1μM
  NanoBRET Fold Response: 0.96
[6]; ADORA3, tracer 1μM
  NanoBRET Fold Response: 0.89
